Measured values: paper PMC5344255, “Design, Synthesis and Biochemical Evaluation of Novel Selective Estrogen Receptor Ligand Conjugates Incorporating an Endoxifen-Combretastatin Hybrid Scaffold” (Biomedicines, 2016)
Where “and” joins values, the source holds several entries; their conditions need not be identical. Equal entries are not always repeated.

Legend:
[1] = tested on: MDA-MB-231 human breast cancer cells; assay: MTT assay for antiproliferative effects in MDA-MB-231; format: cell-based; settings: MDA-MB-231, MTT assay
Description: The human breast carcinoma cell line, MCF-7, was purchased from the European Collection of Animal Cell Cultures (ECACC). The cells were maintained in MCF-7 complete medium; consisting of Eagle’s Minimum Essential Medium (MEM) supplemented with 10% (v/v) Foetal Bovine Serum (FBS), 2 mM L-glutamine, 100 μg/mL penicillin/streptomycin and 1% (v/v) non-essential amino acids. […] The human breast carcinoma cell line, MDA, was purchased from the European Collection of Animal Cell Cultures (ECACC). The cells were maintained in MDA complete medium; consisting of Dulbecco’s Modified Eagle’s Medium (D-MEM) supplemented with 10% (v/v) Foetal Bovine Serum (FBS), 2 mM L-glutamine, 100 μg/mL penicillin/streptomycin. […] The MTT assay was performed according to the reported protocol. The tetrazolium salt, 3-(4,5-dimethylthiazol-2-yl)-2,5-diphenyltetrazolium bromide (MTT) is taken up only by metabolically active cells and cleaved to form a formazan dye by mitochondrial dehydrogenases. […] Graphs of percentage cell viability versus concentration of the subject compound were processed using PRISM [31].

[2] = tested on: MCF-7 human breast cancer cells; assay: MTT assay for antiproliferative effects in MCF-7; format: cell-based; settings: Homo sapiens, MCF7, MCF-7, MTT assay
Description: The human breast carcinoma cell line, MCF-7, was purchased from the European Collection of Animal Cell Cultures (ECACC). The cells were maintained in MCF-7 complete medium; consisting of Eagle’s Minimum Essential Medium (MEM) supplemented with 10% (v/v) Foetal Bovine Serum (FBS), 2 mM L-glutamine, 100 μg/mL penicillin/streptomycin and 1% (v/v) non-essential amino acids. Cell cultures were maintained at 37 °C under a humidified atmosphere of 5% CO2/95% O2. The human breast carcinoma cell line, MDA, was purchased from the European Collection of Animal Cell Cultures (ECACC). The cells were maintained in MDA complete medium; consisting of Dulbecco’s Modified Eagle’s Medium (D-MEM) supplemented with 10% (v/v) Foetal Bovine Serum (FBS), 2 mM L-glutamine, 100 μg/mL penicillin/streptomycin. Cell cultures were maintained at 37 °C under a humidified atmosphere of 5% CO2/95% O2. The MTT assay was performed according to the reported protocol. The tetrazolium salt, 3-(4,5-dimethylthiazol-2-yl)-2,5-diphenyltetrazolium bromide (MTT) is taken up only by metabolically active cells and cleaved to form a formazan dye by mitochondrial dehydrogenases. Assays where repeated in three experiments performed in triplicate (unless otherwise stated) and reported results represent the mean value ± standard error mean. Graphs of percentage cell viability versus concentration of the subject compound were processed using PRISM [31].

[3] = tested on: MDA-MB-231 human breast cancer cells; assay: Lactate dehydrogenase (LDH) cytotoxicity assay in MDA-MB-231; format: cell-based; settings: % cell lysis at 10 μM
Description: (§1) In this assay, the release of cytoplasmic lactate dehydrogenase (LDH) is used as a measure of cell lysis. MCF-7 and MDA-MB-231 cells were seeded at a density of 1 × 10^4 cells/well in a 96-well plate and incubated for 24 h. The cells were then dosed with 2 μL volumes of the test compounds, over the concentration range 1 nM–50 μM. Cytotoxicity was determined using the CytoTox 96 nonradioactive cytotoxicity assay (Promega, Madison, WI, USA) following the manufacturer’s protocol.

[4] = tested on: MCF-7 human breast cancer cells; assay: Lactate dehydrogenase (LDH) cytotoxicity assay in MCF-7; format: cell-based; settings: % cell lysis at 10 µM
Description: as §1

[5] = HPLC stability study in phosphate buffer; format: physicochemical; settings: pH values in the range 4–9
Description: Analytical high-performance liquid chromatography (HPLC) stability studies were performed using a Symmetry® column (C18, 5 µm, 4.6 × 150 mm), a Waters 2487 Dual Wavelength Absorbance detector, a Waters 1525 binary HPLC pump and a Waters 717 plus Autosampler (Waters Corporation, Milford, MA, USA). Samples were detected at wavelength of 254 nm. All samples were analysed using acetonitrile (80%):water (20%) as the mobile phase over 10 min and a flow rate of 1 mL/min. Stock solutions are prepared by dissolving 5mg of compound in 10 mL of mobile phase. Phosphate buffers at the desired pH values (4, 7.4, and 9) were prepared in accordance with the British Pharmacopoeia monograph 2015. 30 µL of stock solution was diluted with 1 mL of appropriate buffer, shaken and injected immediately. Samples were withdrawn and analysed at time intervals of t = 0 min, 5 min, 30 min, 60 min, 90 min, 120 min, 24 h and 48 h.

human ERα = target: T1, human ERα (Homo sapiens, UniProt P03372); assay: Estrogen receptor fluorescence polarisation competitive binding assay, ERα; settings: for IC50: competitive binding, fluoromone ligand; for Selectivity (α/β): ratio of ER binding IC50 values
T1 construct: purchased Invitrogen; host or cells: baculovirus expression system
T1 sequence (P03372 1-595): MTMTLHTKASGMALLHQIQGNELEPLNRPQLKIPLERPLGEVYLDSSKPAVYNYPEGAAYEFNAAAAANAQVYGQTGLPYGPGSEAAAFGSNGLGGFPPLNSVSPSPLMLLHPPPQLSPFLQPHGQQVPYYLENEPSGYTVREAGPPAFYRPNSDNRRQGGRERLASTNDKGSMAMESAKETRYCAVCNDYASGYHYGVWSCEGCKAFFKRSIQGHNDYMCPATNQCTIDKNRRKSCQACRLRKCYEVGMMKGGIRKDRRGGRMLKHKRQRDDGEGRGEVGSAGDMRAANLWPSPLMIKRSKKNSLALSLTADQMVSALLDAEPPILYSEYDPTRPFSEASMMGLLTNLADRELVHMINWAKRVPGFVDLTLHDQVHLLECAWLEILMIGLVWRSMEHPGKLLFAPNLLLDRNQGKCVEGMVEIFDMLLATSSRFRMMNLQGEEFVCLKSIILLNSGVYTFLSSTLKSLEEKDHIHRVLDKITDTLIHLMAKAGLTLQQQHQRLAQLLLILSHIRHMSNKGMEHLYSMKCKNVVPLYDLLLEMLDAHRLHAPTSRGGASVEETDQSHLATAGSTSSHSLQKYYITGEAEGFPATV

human ERβ = target: T2, human ERβ (Homo sapiens, UniProt Q92731); assay: Estrogen receptor fluorescence polarisation competitive binding assay, ERβ; settings: fluoromone ligand
T2 construct: purchased Invitrogen; host or cells: baculovirus expression system

[6] = mean of at least three experiments in triplicate

T2 sequence (Q92731 whole entry): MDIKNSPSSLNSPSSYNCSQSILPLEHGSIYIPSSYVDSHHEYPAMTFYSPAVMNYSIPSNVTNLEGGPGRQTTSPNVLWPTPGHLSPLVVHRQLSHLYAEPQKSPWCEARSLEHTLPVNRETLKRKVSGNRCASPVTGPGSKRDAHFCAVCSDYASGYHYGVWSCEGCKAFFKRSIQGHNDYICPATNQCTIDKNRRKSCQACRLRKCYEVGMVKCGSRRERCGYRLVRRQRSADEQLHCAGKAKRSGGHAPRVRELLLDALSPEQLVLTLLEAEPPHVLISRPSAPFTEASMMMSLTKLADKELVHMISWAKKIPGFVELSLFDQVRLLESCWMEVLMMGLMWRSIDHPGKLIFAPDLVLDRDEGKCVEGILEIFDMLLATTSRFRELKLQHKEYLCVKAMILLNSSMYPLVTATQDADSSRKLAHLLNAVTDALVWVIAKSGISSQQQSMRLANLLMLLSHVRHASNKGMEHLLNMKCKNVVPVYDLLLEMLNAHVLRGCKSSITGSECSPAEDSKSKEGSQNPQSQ

Compound: CCC(=C(c1ccc(O)cc1)c1ccc(OCCN(C)C(=O)/C(=C/c2cc(OC)c(OC)c(OC)c2)c2ccc(OC)cc2)cc1)c1ccccc1 (mixture of isomers) [Compound 31, (E)-N-(2-{4-[(E/Z)-1-(4-Hydroxyphenyl)-2-phenylbut-1-enyl]phenoxy}ethyl)-2-(4-methoxyphenyl)-N-methyl-3-(3,4,5-trimethoxyphenyl) acrylamide]
- IC50 [1]: 51000 nM
- IC50 [2, 6]: 2080 nM
- % Cell Death at 10 μM [3]: 0%
- % Cell Death at 10 μM [4]: 1%
- half-life at 14.6 µg/mL [5]: > 24 h

Compound: CCC(=C(c1ccc(O)cc1)c1ccc(OCCN(C)C(=O)/C(=C/c2cc(OC)c(OC)c(OC)c2)c2ccc(OC)cc2)cc1)c1ccc(O)cc1 (mixture of isomers) [Compound 32, (E)-N-(2-{4-[(E/Z)-1,2-Bis-(4-hydroxyphenyl)but-1-enyl]phenoxy}ethyl)-2-(4-methoxyphenyl)-N-methyl-3-(3,4,5-trimethoxyphenyl)acrylamide]
- IC50 [1]: 4090 nM
- IC50 [2, 6]: 41 nM
- % Cell Death at 10 μM [3]: 0%
- % Cell Death at 10 μM [4]: 16%
- half-life at 14.6 µg/mL [5]: > 24 h

Compound: CCC(=C(c1ccc(O)cc1)c1ccc(OCCNC)cc1)c1ccccc1 [Compound 11, 4-{1-[4-(2-Methylaminoethoxy)phenyl]-2-phenylbut-1-enyl}phenol, reference compound]
- IC50 [2, 6]: 29 nM
- IC50 ([2]; values in nM): 0.029 nM
- % Cell Death at 10 μM [4]: 23%
- IC50 (human ERα): 47 nM
- Selectivity (α/β) (human ERα): 2.52
- IC50 (human ERβ): 118 nM

Compound: CCC(=C(c1ccc(O)cc1)c1ccc(OCCNC)cc1)c1ccc(O)cc1 [Compound 12, 4-(1-(4-(2-(Methylamino)ethoxy)phenyl)-2-(4-hydroxyphenyl)but-1-enyl)phenol]
- IC50 [2, 6]: 28 nM
- % Cell Death at 10 μM [4]: 11%
- IC50 (human ERα): 44.1 nM and 44 nM
- Selectivity (α/β) (human ERα): 0.90
- IC50 (human ERβ): 39.7 nM and 40 nM
